Assay results taken from US20140051575A1 (priority 2011, published 2014).

Legend:
[1] = Measurement of logP values by HPLC on reversed phase columns (EEC directive 79/831 Annex V.A8); assay type: physicochemical; settings: pH 2.7, 0.1% formic acid in water / acetonitrile gradient, calibration with alkan-2-ones
Method: Measurement of logP values was performed according EEC directive 79/831 Annex V.A8 by HPLC (High Performance Liquid Chromatography) on reversed phase columns with the following methods:
Measurement of LC-MS was done at pH 2.7 with 0.1% formic acid in water and with acetonitrile (contains 0.1% formic acid) as eluent with a linear gradient from 10% acetonitrile to 95% acetonitrile.
Calibration was done with not branched alkan2-ones (with 3 to 16 carbon atoms) with known logP-values (measurement of logP values using retention times with linear interpolation between successive alkanones). lambda-maX-values were determined using UV-spectra from 200 nm to 400 nm and the peak values of the chromatographic signals.

Phytophthora infestans = assay type: in vivo; settings: tomato plants, preventive spray, 500 ppm of active ingredient, evaluated 7 days after inoculation; 0% = untreated control, 100% = no disease

| Compound | Log P [1] | Eff. % (Phytophthora infestans) [%] |
| --- | --- | --- |
| Cn1nnnc1C(=NOCc1cccc(NC(=O)COCC2CC2)n1)c1ccccc1 [Example 1] | 3.29 | – |
| CC(OCC1CC1)C(=O)Nc1ccc(Br)c(CON=C(c2ccccc2)c2nnnn2C)n1 (stereo not drawn) [Example 3] | 4.23 | 100 |
| Cn1nnnc1C(=NOCc1cccc(NC(=O)COCC2CCCC2)n1)c1ccccc1 [Example 5] | 4.24 | 97 |
| Cn1nnnc1C(=NOCc1cccc(NC(=O)COCC2CCCCC2)n1)c1ccccc1 [Example 6] | 4.63 | 95 |
| CC(OCC1CCCCC1)C(=O)Nc1cccc(CON=C(c2ccccc2)c2nnnn2C)n1 (stereo not drawn) [Example 7] | 5.03 | 100 |
| CC(OCC1CCCC1)C(=O)Nc1cccc(CON=C(c2ccccc2)c2nnnn2C)n1 (stereo not drawn) [Example 8] | 4.59 | 100 |
| Cn1nnnc1C(=NOCc1cccc(NC(=O)COCCC2CCCCC2)n1)c1ccccc1 [Example 10] | 4.98 | 95 |
| Cn1nnnc1C(=NOCc1cccc(NC(=O)COCCC2CCCC2)n1)c1ccccc1 [Example 11] | 4.61 | 95 |
| CC(OCC1CCCCC1)C(=O)Nc1nc(CON=C(c2ccccc2)c2nnnn2C)cs1 (stereo not drawn) [Example 18] | 4.64 | 100 |
| Cn1nnnc1C(=NOCc1csc(NC(=O)COCCC2CCCCC2)n1)c1ccccc1 [Example 20] | 4.63 | 100 |
| Cn1nnnc1C(=NOCc1csc(NC(=O)COCCC2CCCC2)n1)c1ccccc1 [Example 21] | 4.29 | 95 |
| Cc1nnnn1C(=NOCc1cccc(NC(=O)COCC2CC2)n1)c1ccccc1 [Example 23] | 3.33 | 95 |
| Cc1nnnn1C(=NOCc1cccc(NC(=O)COCC2CCCC2)n1)c1ccccc1 [Example 26] | 4.34 | 97 |
| Cc1nnnn1C(=NOCc1cccc(NC(=O)COCC2CCCCC2)n1)c1ccccc1 [Example 27] | 4.76 | 95 |
| Cc1nnnn1C(=NOCc1cccc(NC(=O)C(C)OCC2CCCCC2)n1)c1ccccc1 (stereo not drawn) [Example 28] | 5.13 | 100 |
| Cc1nnnn1C(=NOCc1cccc(NC(=O)C(C)OCC2CCCC2)n1)c1ccccc1 (stereo not drawn) [Example 29] | 4.69 | 100 |
| Cc1nnnn1C(=NOCc1cccc(NC(=O)COCCC2CCCCC2)n1)c1ccccc1 [Example 30] | 5.08 | 95 |
| Cc1nnnn1C(=NOCc1cccc(NC(=O)COCCC2CCCC2)n1)c1ccccc1 [Example 31] | 4.73 | 97 |
| Cc1nnnn1C(=NOCc1cccc(NC(=O)C(C)OCC2CCC2)n1)c1ccccc1 (stereo not drawn) [Example 32] | 4.26 | 100 |
| Cc1nnnn1C(=NOCc1csc(NC(=O)COCC2CCCC2)n1)c1ccccc1 [Example 36] | 3.94 | 97 |
| Cc1nnnn1C(=NOCc1csc(NC(=O)COCC2CCCCC2)n1)c1ccccc1 [Example 37] | 4.36 | 100 |
| Cc1nnnn1C(=NOCc1csc(NC(=O)C(C)OCC2CCCCC2)n1)c1ccccc1 (stereo not drawn) [Example 38] | 4.74 | 100 |

| Compound | Log P [1] | Eff. % (Phytophthora infestans) [%] |
| --- | --- | --- |
| Cc1nnnn1C(=NOCc1csc(NC(=O)C(C)OCC2CCCC2)n1)c1ccccc1 (stereo not drawn) [Example 39] | 4.31 | 100 |
| Cc1nnnn1C(=NOCc1csc(NC(=O)COCCC2CCCCC2)n1)c1ccccc1 [Example 40] | 4.71 | 95 |
| Cc1nnnn1C(=NOCc1csc(NC(=O)COCCC2CCCC2)n1)c1ccccc1 [Example 41] | 4.34 | 98 |
| CC(C)CCOCC(=O)Nc1cccc(CON=C(c2ccccc2)c2nnnn2C)n1 [Example 43] | 4.09 | – |
| CC(C)CCOC(C)C(=O)Nc1cccc(CON=C(c2ccccc2)c2nnnn2C)n1 (stereo not drawn) [Example 44] | 4.41 | 100 |
| Cc1nnnn1C(=NOCc1csc(NC(=O)COCCC(C)C)n1)c1ccccc1 [Example 46] | 3.87 | 100 |
| CC(OCc1ccccc1)C(=O)Nc1cccc(CON=C(c2ccccc2)c2nnnn2C)n1 (stereo not drawn) [Example 47] | 3.92 | – |
| Cc1nnnn1C(=NOCc1cccc(NC(=O)C(C)OCc2ccccc2)n1)c1ccccc1 (stereo not drawn) [Example 51] | 4.11 | 95 |
| Cn1nnnc1C(=NOCc1cccc(NC(=O)COCC2CCCCO2)n1)c1ccccc1 (stereo not drawn) [Example 53] | 3.33 | – |
| CC(OCC1CCCCO1)C(=O)Nc1cccc(CON=C(c2ccccc2)c2nnnn2C)n1 (stereo not drawn) [Example 55] | 3.67 | 100 |
| Cn1nnnc1C(=NOCc1csc(NC(=O)COCC2CCCCO2)n1)c1ccccc1 (stereo not drawn) [Example 57] | 3.25 | 95 |
| CC(OCC1CCCCO1)C(=O)Nc1nc(CON=C(c2ccccc2)c2nnnn2C)cs1 (stereo not drawn) [Example 59] | 3.62 | 100 |
| Cc1nnnn1C(=NOCc1cccc(NC(=O)COCC2CCCO2)n1)c1ccccc1 (stereo not drawn) [Example 61] | 2.98 | – |
| Cc1nnnn1C(=NOCc1csc(NC(=O)C(C)OCC2CCCCO2)n1)c1ccccc1 (stereo not drawn) [Example 62] | 3.69 | 98 |
| Cn1nnnc1C(=NOCc1cccc(NC(=O)CSCc2ccccc2)n1)c1ccccc1 [Example 64] | 3.78 | – |
| C=CCSC(C)C(=O)Nc1cccc(CON=C(c2ccccc2)c2nnnn2C)n1 (stereo not drawn) [Example 66] | – | 95 |
| Cn1nnnc1C(=NOCc1cccc(NC(=O)OCC(C)(C)OCc2ccccc2)n1)c1ccccc1 [Example 68] | 4.34 | 100 |
| Cn1nnnc1C(=NOCc1csc(NC(=O)CSCc2cccs2)n1)c1ccccc1 [Example 69] | 3.46 | 95 |
| C=CCSCC(=O)Nc1nc(CON=C(c2ccccc2)c2nnnn2C)cs1 [Example 72] | 3.11 | 100 |
| CC(SC1CCCC1)C(=O)Nc1nc(CON=C(c2ccccc2)c2nnnn2C)cs1 (stereo not drawn) [Example 73] | 3.99 | 95 |
| C=CCSC(C)C(=O)Nc1nc(CON=C(c2ccccc2)c2nnnn2C)cs1 (stereo not drawn) [Example 75] | 3.31 | 93 |
| Cn1nnnc1C(=NOCc1csc(NC(=O)CSC2CCCCC2)n1)c1ccccc1 [Example 76] | 3.92 | 100 |

| Compound | Log P [1] | Eff. % (Phytophthora infestans) [%] |
| --- | --- | --- |
| Cn1nnnc1C(=NOCc1csc(NC(=O)CSC2CCCC2)n1)c1ccccc1 [Example 77] | 3.65 | 95 |
| Cc1ccccc1CSCC(=O)Nc1cccc(CON=C(c2ccccc2)n2nnnc2C)n1 [Example 78] | 4.06 | 100 |
| Cc1nnnn1C(=NOCc1cccc(NC(=O)CSC2CCCCC2)n1)c1ccccc1 [Example 79] | 4.26 | 100 |
| Cc1nnnn1C(=NOCc1cccc(NC(=O)CSC2CCCC2)n1)c1ccccc1 [Example 80] | 3.92 | 100 |
| Cc1nnnn1C(=NOCc1csc(NC(=O)CSCCC(C)C)n1)c1ccccc1 [Example 81] | 3.99 | 95 |
| Cc1nnnn1C(=NOCc1csc(NC(=O)C(C)SCc2ccccc2)n1)c1ccccc1 (stereo not drawn) [Example 82] | 3.85 | 100 |
| C=CCSCC(=O)Nc1nc(CON=C(c2ccccc2)n2nnnc2C)cs1 [Example 83] | 3.15 | 88 |
| Cc1nnnn1C(=NOCc1csc(NC(=O)CSCc2cccs2)n1)c1ccccc1 [Example 84] | 3.51 | 98 |
| C=CCSC(C)C(=O)Nc1nc(CON=C(c2ccccc2)n2nnnc2C)cs1 (stereo not drawn) [Example 85] | 3.35 | 98 |
| Cc1nnnn1C(=NOCc1csc(NC(=O)CSCc2ccccc2)n1)c1ccccc1 [Example 86] | 3.57 | 93 |
| Cc1nnnn1C(=NOCc1csc(NC(=O)CSCC2CC2)n1)c1ccccc1 [Example 87] | 3.31 | 100 |
| Cc1nnnn1C(=NOCc1csc(NC(=O)CSC2CCCCC2)n1)c1ccccc1 [Example 89] | 3.96 | 100 |
| Cc1nnnn1C(=NOCc1csc(NC(=O)CSC2CCCC2)n1)c1ccccc1 [Example 90] | 3.65 | 95 |
| Cn1nnnc1C(=NOCc1cccc(NC(=O)C2CC2c2ncc(C(F)(F)F)cc2Cl)n1)c1ccccc1 (stereo not drawn) [Example 92] | 4.54 | 98 |
| Cn1nnnc1C(=NOCc1csc(NC(=O)C2CC2c2ncc(C(F)(F)F)cc2Cl)n1)c1ccccc1 (stereo not drawn) [Example 93] | 4.37 | 98 |
| Cn1nnnc1C(=NOCc1cccc(NC(=O)C(C)(C)CSC2CCCCC2)n1)c1ccccc1 [Example 94] | 4.98 | 100 |
| CC(OCC(=O)Nc1cccc(CON=C(c2ccccc2)c2nnnn2C)n1)c1ccccc1 (stereo not drawn) [Example 95] | 3.94 | 100 |
| CC(COCc1ccccc1)C(=O)Nc1cccc(CON=C(c2ccccc2)c2nnnn2C)n1 (stereo not drawn) [Example 97] | 3.85 | 100 |
| Cn1nnnc1C(=NOCc1cccc(NC(=O)CCOCc2ccccc2)n1)c1ccccc1 [Example 99] | 3.48 | 90 |
| Cn1nnnc1C(=NOCc1cccc(NC(=O)CCSCc2ccc(F)cc2)n1)c1ccccc1 [Example 100] | 3.87 | 95 |
| Cn1nnnc1C(=NOCc1cccc(NC(=O)CCSCc2ccccc2)n1)c1ccccc1 [Example 101] | 3.83 | 90 |
